Test results published in the supplement of paper PMC6045584.
± gives the standard deviation of the averaged measurements.

How the values were obtained:
IMATINIB = compound: Cc1ccc(NC(=O)c2ccc(CN3CCN(C)CC3)cc2)cc1Nc1nccc(-c2cccnc2)n1 [IMATINIB]; experiment: surviving fraction relative to DMSO-only wells; higher = less growth inhibition; settings: exposure time: 5 days
Summary of the method: (§1)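 After seeding at 250–500 cells per well in 384-well plates and a 24-hour wait, log-phase tumour cell lines were exposed without interruption for five days to inhibitors at 0.5, 1, 5, 10, 50, 100, 500 and 1000 nM. CellTiter-Glo luminescence was recorded after 10 minutes at room temperature. Viability is reported as surviving fraction, the luminescence normalised to the median of DMSO-only wells.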

MK-1775 = compound: C=CCn1c(=O)c2cnc(Nc3ccc(N4CCN(C)CC4)cc3)nc2n1-c1cccc(C(C)(C)O)n1 [MK-1775]; experiment: as above; settings: exposure time: 5 days
Summary of the method: as §1

Test System | surviving fraction (IMATINIB; 0.5 nM) | surviving fraction (IMATINIB; 5 nM) | surviving fraction (IMATINIB; 10 nM) | surviving fraction (IMATINIB; 50 nM) | surviving fraction (IMATINIB; 500 nM) | surviving fraction (IMATINIB; 1000 nM) | surviving fraction (MK-1775; 0.5 nM) | surviving fraction (MK-1775; 1 nM) | surviving fraction (MK-1775; 5 nM) | surviving fraction (MK-1775; 10 nM) | surviving fraction (MK-1775; 50 nM) | surviving fraction (MK-1775; 100 nM) | surviving fraction (MK-1775; 500 nM) | surviving fraction (MK-1775; 1000 nM) | surviving fraction (IMATINIB; 1 nM) | surviving fraction (IMATINIB; 100 nM)
SUM44 BREAST | 1.3 ± 0.48 | 1.24 ± 0.36 | 1.23 ± 0.28 | 1.27 ± 0.31 | 1.26 ± 0.34 | 1.11 ± 0.23 | 1.043 ± 0.0078 | 1.08 ± 0.034 | 1.04 ± 0.023 | 1.07 ± 0.017 | 0.979 ± 0.017 | 0.561 ± 0.014 | 0.26 ± 0.0095 | 0.254 ± 0.01 | – | –
COLO320DM LARGE INTESTINE | 1.1 ± 0.17 | 1.08 ± 0.16 | 1.12 ± 0.11 | 1.12 ± 0.12 | 1.15 ± 0.12 | 1.16 ± 0.039 | 1.09 ± 0.063 | 1.1 ± 0.12 | 1.08 ± 0.12 | 1.12 ± 0.033 | 0.834 ± 0.054 | 0.592 ± 0.16 | 0.139 ± 0.011 | 0.131 ± 0.014 | 1.14 ± 0.052 | 1.14 ± 0.098
HU09 BONE | 1.05 ± 0.19 | 1.16 ± 0.038 | – | 0.878 ± 0.084 | 0.554 ± 0.027 | 0.483 ± 0.026 | 1.02 ± 0.088 | 0.916 ± 0.096 | 1.009 ± 0.01 | 0.99 ± 0.049 | 0.831 ± 0.14 | 0.518 ± 0.045 | 0.06 ± 0.005 | 0.0393 ± 0.0049 | 1.01 ± 0.034 | 0.89 ± 0.0044
SUM149 BREAST | 1.04 ± 0.08 | 1.07 ± 0.079 | 1.08 ± 0.072 | – | 0.866 ± 0.045 | 1.01 ± 0.046 | 1.13 ± 0.077 | 1.09 ± 0.069 | 1.16 ± 0.095 | 1.12 ± 0.097 | 0.706 ± 0.025 | 0.328 ± 0.024 | 0.073 ± 0.0044 | 0.0517 ± 0.0025 | 1.11 ± 0.047 | 0.951 ± 0.07
VCAP PROSTATE | 1.11 ± 0.19 | – | 1.17 ± 0.035 | 1.22 ± 0.12 | – | 1.05 ± 0.086 | 1.14 ± 0.079 | 1.14 ± 0.19 | 1.09 ± 0.042 | 1.08 ± 0.08 | 1.04 ± 0.12 | 0.52 ± 0.11 | 0.0963 ± 0.019 | 0.121 ± 0.019 | 0.949 ± 0.15 | 1.12 ± 0.13
SNU475 LIVER | 1.04 ± 0.086 | 1.06 ± 0.036 | 1.07 ± 0.019 | 1.09 ± 0.0085 | 1.06 ± 0.045 | – | 1.05 ± 0.06 | 1.04 ± 0.032 | 1.04 ± 0.024 | 0.9893 ± 0.0081 | 0.941 ± 0.035 | 0.884 ± 0.054 | 0.58 ± 0.031 | 0.345 ± 0.033 | – | –
DU4475 BREAST | 1.04 ± 0.18 | – | 1.11 ± 0.13 | 1.09 ± 0.15 | 1.21 ± 0.049 | 1.09 ± 0.1 | 1.1 ± 0.26 | 1.15 ± 0.088 | 1.01 ± 0.068 | 0.889 ± 0.059 | 0.686 ± 0.28 | 0.554 ± 0.23 | 0.102 ± 0.034 | 0.037 ± 0.0056 | 1.1 ± 0.028 | –
SG31 HEADNECK | 1.16 ± 0.19 | 1.36 ± 0.36 | 1.16 ± 0.33 | 1.07 ± 0.1 | 1.33 ± 0.21 | 1.18 ± 0.16 | 1.15 ± 0.19 | 1.03 ± 0.1 | 0.968 ± 0.097 | 0.977 ± 0.12 | 0.979 ± 0.14 | 0.789 ± 0.1 | 0.623 ± 0.074 | 0.649 ± 0.048 | 1.33 ± 0.14 | 0.994 ± 0.022
SKBR3 BREAST | 1.02 ± 0.2 | – | 1.11 ± 0.14 | 1.09 ± 0.081 | 1.24 ± 0.15 | 1.07 ± 0.15 | 1.07 ± 0.15 | 0.873 ± 0.22 | 0.975 ± 0.15 | 1.02 ± 0.15 | 0.858 ± 0.12 | 0.746 ± 0.077 | 0.308 ± 0.031 | 0.182 ± 0.0035 | 1.09 ± 0.09 | 1.16 ± 0.063
MDAMB361 BREAST | 0.927 ± 0.066 | 0.826 ± 0.018 | 0.878 ± 0.046 | 0.869 ± 0.082 | – | 0.827 ± 0.087 | 0.862 ± 0.075 | 0.805 ± 0.039 | 0.875 ± 0.053 | 0.79 ± 0.053 | 0.68 ± 0.066 | 0.549 ± 0.047 | 0.478 ± 0.014 | 0.459 ± 0.015 | 0.879 ± 0.079 | 0.879 ± 0.081
ASKA SYNOVIAL | 1.1 ± 0.017 | 1.23 ± 0.1 | 1.08 ± 0.095 | – | 1.21 ± 0.095 | 1.07 ± 0.094 | 0.946 ± 0.032 | 1.02 ± 0.1 | 1.1 ± 0.03 | 1.02 ± 0.023 | 0.405 ± 0.0092 | 0.406 ± 0.012 | 0.295 ± 0.019 | 0.37 ± 0.015 | 1.09 ± 0.03 | 1.19 ± 0.1
